# ChEMBL document CHEMBL1201862, “PubChem BioAssay data set” (2004)
#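 Five concentrations, 48 hours, 96-well plates. Abbreviation: GI50, concentration required for 50% inhibition of growth.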 Calls of active or inactive are those of the source. Cut-off read from the data, not from the text of the source: active = GI50 up to about 1.1 µM and inactive = higher.
# Key:
# Experiment in all cases: NCI tumour cell line growth inhibition, 48 h
# 786-0 = test system: 786-0
# A498 = test system: A498
# A549 = test system: A549
# ACHN = test system: ACHN
# BT-549 = test system: BT-549
# CAKI-1 = test system: CAKI-1
# CCRF-CEM = test system: CCRF-CEM
# COLO 205 = test system: COLO 205
# DU-145 = test system: DU-145
# EKVX = test system: EKVX
# HCT-116 = test system: HCT-116
# HCT-15 = test system: HCT-15
# HL-60 = test system: HL-60
# HOP-62 = test system: HOP-62
# HOP-92 = test system: HOP-92
# HT-29 = test system: HT-29
# Hs-578T = test system: Hs-578T
# IGROV-1 = test system: IGROV-1
# K562 = test system: K562
# KM12 = test system: KM12
# LOX IMVI = test system: LOX IMVI
# M14 = test system: M14
# MCF7 = test system: MCF7
# MDA-MB-231 = test system: MDA-MB-231
# MDA-MB-435 = test system: MDA-MB-435
# MDA-N = test system: MDA-N
# MOLT-4 = test system: MOLT-4
# Malme-3M = test system: Malme-3M
# NCI-H23 = test system: NCI-H23
# NCI-H460 = test system: NCI-H460
# NCI-H522 = test system: NCI-H522
# NCI/ADR-RES = test system: NCI/ADR-RES
# OVCAR-3 = test system: OVCAR-3
# OVCAR-4 = test system: OVCAR-4
# OVCAR-5 = test system: OVCAR-5
# OVCAR-8 = test system: OVCAR-8
# PC-3 = test system: PC-3
# RPMI-8226 = test system: RPMI-8226
# RXF 393 = test system: RXF 393
# SF-268 = test system: SF-268
# SF-295 = test system: SF-295
# SF-539 = test system: SF-539
# SK-MEL-28 = test system: SK-MEL-28
# SK-MEL-2 = test system: SK-MEL-2
# SK-OV-3 = test system: SK-OV-3
# SN12C = test system: SN12C
# SNB-19 = test system: SNB-19
# SNB-75 = test system: SNB-75
# SR = test system: SR
# SW-620 = test system: SW-620
# T47D = test system: T47D
# TK-10 = test system: TK-10
# U-251 = test system: U-251
# UACC-257 = test system: UACC-257
# UACC-62 = test system: UACC-62
# UO-31 = test system: UO-31
# HCC 2998 = test system: HCC 2998
# NCI-H226 = test system: NCI-H226
# SK-MEL-5 = test system: SK-MEL-5
smiles,measurement,setting,value
O=C(O)c1ccccc1NCn1c(=S)sc2ccccc21,GI50,786-0,54.3 µM (inactive)
same,GI50,A498,> 100 µM (inactive)
same,GI50,A549,68.7 µM (inactive)
same,GI50,ACHN,35.6 µM (inactive)
same,GI50,BT-549,> 100 µM (inactive)
same,GI50,CAKI-1,> 100 µM (inactive)
same,GI50,CCRF-CEM,23.4 µM (inactive)
same,GI50,COLO 205,25.7 µM (inactive)
same,GI50,DU-145,37.2 µM (inactive)
same,GI50,EKVX,> 100 µM (inactive)
same,GI50,HCT-116,40.7 µM (inactive)
same,GI50,HCT-15,66.5 µM
same,GI50,HL-60,19.6 µM (inactive)
same,GI50,HOP-62,45.1 µM (inactive)
same,GI50,HOP-92,> 100 µM (inactive)
same,GI50,HT-29,59.8 µM (inactive)
same,GI50,Hs-578T,> 100 µM (inactive)
same,GI50,IGROV-1,57.4 µM (inactive)
same,GI50,K562,> 100 µM (inactive)
same,GI50,KM12,63 µM (inactive)
same,GI50,LOX IMVI,20 µM (inactive)
same,GI50,M14,> 100 µM (inactive)
same,GI50,MCF7,22.4 µM (inactive)
same,GI50,MDA-MB-231,51.8 µM (inactive)
same,GI50,MDA-MB-435,83 µM (inactive)
same,GI50,MDA-N,> 100 µM (inactive)
same,GI50,MOLT-4,35.1 µM (inactive)
same,GI50,Malme-3M,35.5 µM (inactive)
same,GI50,NCI-H23,28.2 µM (inactive)
same,GI50,NCI-H460,21.9 µM (inactive)
same,GI50,NCI-H522,27 µM (inactive)
same,GI50,NCI/ADR-RES,> 100 µM (inactive)
same,GI50,OVCAR-3,30.6 µM (inactive)
same,GI50,OVCAR-4,56 µM (inactive)
same,GI50,OVCAR-5,> 100 µM (inactive)
same,GI50,OVCAR-8,> 100 µM (inactive)
same,GI50,PC-3,45.6 µM (inactive)
same,GI50,RPMI-8226,32.3 µM (inactive)
same,GI50,RXF 393,> 100 µM (inactive)
same,GI50,SF-268,45.5 µM (inactive)
same,GI50,SF-295,45.6 µM (inactive)
same,GI50,SF-539,18.3 µM (inactive)
same,GI50,SK-MEL-28,> 100 µM (inactive)
same,GI50,SK-MEL-2,> 100 µM (inactive)
same,GI50,SK-OV-3,> 100 µM (inactive)
same,GI50,SN12C,35.1 µM (inactive)
same,GI50,SNB-19,76.7 µM (inactive)
same,GI50,SNB-75,> 100 µM (inactive)
same,GI50,SR,29.6 µM (inactive)
same,GI50,SW-620,36 µM (inactive)
same,GI50,T47D,37.1 µM (inactive)
same,GI50,TK-10,94.6 µM (inactive)
same,GI50,U-251,47.3 µM (inactive)
same,GI50,UACC-257,31.8 µM (inactive)
same,GI50,UACC-62,44.3 µM (inactive)
same,GI50,UO-31,51.2 µM (inactive)
O=C1c2cc(Cl)ccc2-n2c(noc2=O)C2CSCN12 (stereo unspecified),GI50,786-0,> 100 µM (inactive)
same,GI50,A498,> 100 µM (inactive)
same,GI50,A549,> 100 µM (inactive)
same,GI50,ACHN,> 100 µM (inactive)
same,GI50,BT-549,> 100 µM (inactive)
same,GI50,CAKI-1,> 100 µM (inactive)
same,GI50,CCRF-CEM,> 100 µM (inactive)
same,GI50,COLO 205,> 100 µM (inactive)
same,GI50,DU-145,> 100 µM (inactive)
same,GI50,EKVX,> 100 µM (inactive)
same,GI50,HCC 2998,> 100 µM (inactive)
same,GI50,HCT-116,> 100 µM (inactive)
same,GI50,HCT-15,> 100 µM
same,GI50,HOP-62,> 100 µM (inactive)
same,GI50,HT-29,> 100 µM (inactive)
same,GI50,Hs-578T,> 100 µM (inactive)
same,GI50,IGROV-1,> 100 µM (inactive)
same,GI50,K562,55.7 µM (inactive)
same,GI50,KM12,> 100 µM (inactive)
same,GI50,LOX IMVI,> 100 µM (inactive)
same,GI50,M14,> 100 µM (inactive)
same,GI50,MCF7,> 100 µM (inactive)
same,GI50,MDA-MB-231,> 100 µM (inactive)
same,GI50,MDA-MB-435,> 100 µM (inactive)
same,GI50,MDA-N,> 100 µM (inactive)
same,GI50,MOLT-4,> 100 µM (inactive)
same,GI50,Malme-3M,> 100 µM (inactive)
same,GI50,NCI-H226,> 100 µM (inactive)
same,GI50,NCI-H460,> 100 µM (inactive)
same,GI50,NCI-H522,> 100 µM (inactive)
same,GI50,NCI/ADR-RES,> 100 µM (inactive)
same,GI50,OVCAR-3,> 100 µM (inactive)
same,GI50,OVCAR-4,> 100 µM (inactive)
same,GI50,OVCAR-5,> 100 µM (inactive)
same,GI50,OVCAR-8,> 100 µM (inactive)
same,GI50,PC-3,> 100 µM (inactive)
same,GI50,RPMI-8226,> 100 µM (inactive)
same,GI50,RXF 393,> 100 µM (inactive)
same,GI50,SF-268,> 100 µM (inactive)
same,GI50,SF-295,> 100 µM (inactive)
same,GI50,SK-MEL-28,> 100 µM (inactive)
same,GI50,SK-MEL-2,> 100 µM (inactive)
same,GI50,SK-MEL-5,> 100 µM (inactive)
same,GI50,SK-OV-3,> 100 µM (inactive)
same,GI50,SN12C,> 100 µM (inactive)
same,GI50,SNB-19,> 100 µM (inactive)
same,GI50,SNB-75,> 100 µM (inactive)
same,GI50,SR,> 100 µM (inactive)
same,GI50,SW-620,> 100 µM (inactive)
same,GI50,T47D,> 100 µM (inactive)
same,GI50,TK-10,> 100 µM (inactive)
same,GI50,U-251,> 100 µM (inactive)
same,GI50,UACC-257,> 100 µM (inactive)
same,GI50,UACC-62,> 100 µM (inactive)
same,GI50,UO-31,> 100 µM (inactive)
